Source: patent publication US20200222497A1, “USE OF COMPOSITAE-TYPE CYCLIC PEPTIDE COMPOUND AS CGAS-STING SIGNALLING PATHWAY INHIBITOR” (CHINA PHARMACEUTICAL UNIVERSITY, priority 2017, published 2020)

Test system: HSV-1 induced IFNβ protein in mouse serum
Experiment: IFNβ protein in serum of HSV-1 infected mice (ELISA)
Type: in vivo
Conditions: wild mouse, compound by tail vein injection three times, HSV-1 by tail vein, serum collected in 6 hours, FIG. 3
Description: Influence of the compositae type cyclopeptide compound Astin C (3) prepared in example 1 on expression of IFNβ protein in HSV-1 induced mouse serum.
The experimental principle: Expression of the IFNβ protein in the body is a mark event of innate immunity resisting infection reaction, the expressed IFNβ can activate the signal transduction channel of the interferon receptor (IFNR) to induce expression of cell factors and inflammatory factors such as interferon stimulated genes, and finally, the invading pathogenic microorganisms are eliminated by recruiting NK cells or further activating molecular mechanisms such as adaptive immune response. Therefore, after the DNA virus HSV-1 infects a mouse, the activating condition of the innate anti-infection immune response of the body can be reflected by detecting the expression quantity of IFN-β of mouse serum, so that influence of the compound on the innate anti-infection immune reaction of the body is evaluated.
The experimental method: (1) Establishment of an HSV-1 infected mouse model: A 6-8 week old wild mouse was taken; 100 μL of HSV-1, the titer of which is 1×10^7, was injected into a mouse body by way of tail vein injection; and serum was collected in 6 hours for a follow-up experiment. […]

Compound: CCC1NC(=O)C2C(Cl)C(Cl)CN2C(=O)C(CC)NC(=O)CC(c2ccccc2)NC(=O)C(CO)NC1=O (stereo not shown) [Astin C]
- HSV-1 induced IFNβ content in the mouse serum: reduce the HSV-1 induced IFNβ content in the mouse serum obviously
